This note sets out measurements from PubChem BioAssay (NCI).

Where “and” joins values, the source holds several entries; their conditions need not be identical. Equal values may be shown once.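 Cultured in 96-well plates, cells were exposed to test compound for 48 hours across five concentrations. Here, GI50 denotes the concentration required for 50% inhibition of growth. Definition used: TGI = concentration required for complete inhibition of growth.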

What all share (test): NCI-60 cell line screen, 48 h
Test [1] has as its system 786-0 renal.
Test [2] deals with A549 NSCLC.
Test [3] relates to HOP-62 NSCLC.
Test [4] deals with MALME-3M melanoma.
The test system of test [5] is MDA-MB-231 breast.
In test [6] the test system is MDA-MB-435.
Test [7] deals with MOLT-4 leukemia.
The test system of test [8] is NCI/ADR-RES ovarian.
Test [9] concerns SF-295 CNS.
Test [10] concerns SK-MEL-5 melanoma.

`CC(=O)O[C@@H]1c2c(c3c(=O)c4cccc(O)c4c(=O)c=3c2=[N+]=[N-])[C@H](OC(C)=O)[C@@H](OC(C)=O)[C@]1(C)O`: the GI50 was 0.221 µM in test [1]; 0.0518 µM in test [2]; 0.269 µM in test [4]; 0.335 µM in [5]; 0.27 µM in test [6]; 0.0675 µM in test [7]. Also, the values for the GI50 in [9] and in test [10] were 0.785 µM and 0.112 µM, respectively. Further, the TGI in test [1] was 0.944 µM and 0.548 µM; in [2], 1.16 µM and 0.228 µM; in test [3], 1.37 µM and 1.98 µM; in [4], 0.929 µM and 0.972 µM; in test [5] it was 1.46 µM and 1.48 µM; in test [6], 1.42 µM and 0.88 µM. Besides, the TGI in test [7] is 0.275 µM and 0.358 µM; in test [8], 0.658 µM; in test [9] it was 1.5 µM and 1.56 µM; in test [10], 1.18 µM and 0.273 µM.
For `NC(=O)c1cn(C2CC(O)C(CO)O2)c2ncnc(N)c12` (stereo not given), the GI50 was 4.15 µM in [1]; 5.2 µM in [2]; 5.36 µM in test [3]; 0.763 µM in [4]; 3.26 µM in test [5]; 2.42 µM in [6]. Besides, the GI50 in test [7] was 0.611 µM; in test [8] it was 2 µM; in [9], 12.6 µM; in test [10] it was 5.42 µM. For the same compound, the TGI was 18.9 µM in [1]; 41.1 µM in [2]; 49.7 µM in test [3]; 21.2 µM in test [5]; > 100 µM in test [6]; > 100 µM in [7]. Also, the TGI in test [8] was 24.2 µM; in test [9], > 76.6 µM; in [10] it was 31.9 µM.
With `CCCCCSc1ccc2nc(NC(=O)OCC)sc2c1`, the GI50 in test [1] was 0.541 µM; in test [2] it was 2.37 µM; in test [3] it was 0.491 µM; in [4], 0.514 µM; in test [5] it was 0.95 µM; in test [6], 0.194 µM. The GI50 in test [7] is 0.85 µM; in [8], 0.357 µM; in [9], 0.394 µM; in test [10], 0.658 µM. In addition, the TGI in test [1] is > 100 µM; in test [2], > 100 µM; in test [3] it was 31.1 µM; in [4], > 100 µM; in test [5], > 100 µM; in test [6], 0.763 µM. Besides, the TGI in [7] was > 100 µM; in test [8], 3.82 µM; in test [9], 10.6 µM; in test [10] it was > 100 µM.
`CCn1nc(C2CCN(C(=O)CCO)CC2)nc1-c1cnc(N)c(-c2nnc(C(C)(C)C)o2)n1`: the GI50 in test [1] was 3.11 µM; in test [2], 2.26 µM; in test [3], 5.01 µM; in test [4], 3.77 µM; in test [5], 15.1 µM; in test [6] it was 13 µM. Also, the GI50 in test [7] was 2.33 µM; in test [8], 14.6 µM; in test [9] it was 3.27 µM; in [10] it was 11.5 µM. For the same compound, the TGI in test [1] was > 100 µM; in [2], > 100 µM; in test [3], > 100 µM; in test [4], > 100 µM; in test [5], 68.2 µM; in test [6], > 100 µM. Further, the TGI was 39.2 µM in [7], > 100 µM in [8], > 100 µM in test [9] and 31.3 µM in test [10].
Turning to `CN1CCc2ccccc2C1Cc1ccccc1NC(=O)c1sc2ccccc2c1Cl` (stereo not given), the TGI in test [1], in test [2], in test [3], in test [4], in [5] and in test [6] was > 100 µM throughout. Also, the TGI in test [7], in test [8], in test [9] and in [10] was > 100 µM throughout.
For `COc1ccc(Nc2ncc(I)c(NCCCNC(=O)C3CCC3)n2)cc1`, the GI50 in test [1] is 5.58 µM; in test [2], 4.6 µM; in [3] it was 1.64 µM; in test [4], 7.39 µM; in [5], 1.66 µM; in test [6] it was 17.1 µM. The GI50 in test [7] is 4.32 µM; in [8] it was 12 µM; in test [9] it was 3.5 µM; in test [10], 10.1 µM. Besides, the TGI was 29.2 µM in test [1]; 24.6 µM in test [2]; 21.8 µM in test [3]; > 100 µM in [4]; 5.31 µM in test [5]; > 100 µM in test [6]. Further, the TGI in test [7] is > 100 µM; in test [8], > 100 µM; in test [9] it was > 100 µM; in test [10], 28.7 µM.
With `CC[C@]12CN3CCc4c([nH]c5ccccc45)[C@@](C(=O)OC)(c4cc5c(cc4OC)N(C)[C@H]4[C@@](O)(C(=O)OC)[C@H](OC(C)=O)[C@]6(CC)C=CCN7CC[C@]54[C@@H]76)CC(C3)[C@H]1O2` (stereo not given in full), the GI50 is 1.3 µM in test [1]; 0.599 µM in test [2]; 0.121 µM in [3]; 0.0639 µM in [4]; 0.0161 µM in [6]; 0.236 µM in test [7]. The results for the GI50 in test [8] and in [10] were 11.6 µM and 0.0888 µM, respectively. Also, the TGI is > 100 µM in [1]; > 100 µM in test [2]; 26.9 µM in [3]; > 50 µM in test [4]; 7.02 µM and > 11 µM in test [5]; 0.0252 µM and 0.0878 µM in [6]. Moreover, the TGI in [7] is > 100 µM; in [8] it was > 100 µM; in test [9], > 12.3 µM; in [10], 0.887 µM.
For the compound `COc1ccc2c(n1)Sc1nc3ccccc3nc1N2`, the TGI was > 100 µM in test [1]; > 100 µM in [2]; 79.5 µM in test [3]; > 100 µM in [4]; 49.7 µM in [5]; > 100 µM in test [6]. For the same compound, the TGI in test [7] is 35.1 µM; in [8] it was > 100 µM; in test [9], > 100 µM; in test [10], > 100 µM.
